SMILES strings stand for the structures. pKi: −log10 of the molar value.

Usually pKi stands for the Ki on a negative log10 scale, so that one unit is a factor of ten. As a reminder, the inhibition is how much of the control response was suppressed.

The target in one experiment is T1, full-length ATR (Homo sapiens, UniProt Q13535).
T1 construct: Assays were carried out at 25° C. in the presence of 5 nM full-length ATR
T1 sequence (Q13535 whole entry): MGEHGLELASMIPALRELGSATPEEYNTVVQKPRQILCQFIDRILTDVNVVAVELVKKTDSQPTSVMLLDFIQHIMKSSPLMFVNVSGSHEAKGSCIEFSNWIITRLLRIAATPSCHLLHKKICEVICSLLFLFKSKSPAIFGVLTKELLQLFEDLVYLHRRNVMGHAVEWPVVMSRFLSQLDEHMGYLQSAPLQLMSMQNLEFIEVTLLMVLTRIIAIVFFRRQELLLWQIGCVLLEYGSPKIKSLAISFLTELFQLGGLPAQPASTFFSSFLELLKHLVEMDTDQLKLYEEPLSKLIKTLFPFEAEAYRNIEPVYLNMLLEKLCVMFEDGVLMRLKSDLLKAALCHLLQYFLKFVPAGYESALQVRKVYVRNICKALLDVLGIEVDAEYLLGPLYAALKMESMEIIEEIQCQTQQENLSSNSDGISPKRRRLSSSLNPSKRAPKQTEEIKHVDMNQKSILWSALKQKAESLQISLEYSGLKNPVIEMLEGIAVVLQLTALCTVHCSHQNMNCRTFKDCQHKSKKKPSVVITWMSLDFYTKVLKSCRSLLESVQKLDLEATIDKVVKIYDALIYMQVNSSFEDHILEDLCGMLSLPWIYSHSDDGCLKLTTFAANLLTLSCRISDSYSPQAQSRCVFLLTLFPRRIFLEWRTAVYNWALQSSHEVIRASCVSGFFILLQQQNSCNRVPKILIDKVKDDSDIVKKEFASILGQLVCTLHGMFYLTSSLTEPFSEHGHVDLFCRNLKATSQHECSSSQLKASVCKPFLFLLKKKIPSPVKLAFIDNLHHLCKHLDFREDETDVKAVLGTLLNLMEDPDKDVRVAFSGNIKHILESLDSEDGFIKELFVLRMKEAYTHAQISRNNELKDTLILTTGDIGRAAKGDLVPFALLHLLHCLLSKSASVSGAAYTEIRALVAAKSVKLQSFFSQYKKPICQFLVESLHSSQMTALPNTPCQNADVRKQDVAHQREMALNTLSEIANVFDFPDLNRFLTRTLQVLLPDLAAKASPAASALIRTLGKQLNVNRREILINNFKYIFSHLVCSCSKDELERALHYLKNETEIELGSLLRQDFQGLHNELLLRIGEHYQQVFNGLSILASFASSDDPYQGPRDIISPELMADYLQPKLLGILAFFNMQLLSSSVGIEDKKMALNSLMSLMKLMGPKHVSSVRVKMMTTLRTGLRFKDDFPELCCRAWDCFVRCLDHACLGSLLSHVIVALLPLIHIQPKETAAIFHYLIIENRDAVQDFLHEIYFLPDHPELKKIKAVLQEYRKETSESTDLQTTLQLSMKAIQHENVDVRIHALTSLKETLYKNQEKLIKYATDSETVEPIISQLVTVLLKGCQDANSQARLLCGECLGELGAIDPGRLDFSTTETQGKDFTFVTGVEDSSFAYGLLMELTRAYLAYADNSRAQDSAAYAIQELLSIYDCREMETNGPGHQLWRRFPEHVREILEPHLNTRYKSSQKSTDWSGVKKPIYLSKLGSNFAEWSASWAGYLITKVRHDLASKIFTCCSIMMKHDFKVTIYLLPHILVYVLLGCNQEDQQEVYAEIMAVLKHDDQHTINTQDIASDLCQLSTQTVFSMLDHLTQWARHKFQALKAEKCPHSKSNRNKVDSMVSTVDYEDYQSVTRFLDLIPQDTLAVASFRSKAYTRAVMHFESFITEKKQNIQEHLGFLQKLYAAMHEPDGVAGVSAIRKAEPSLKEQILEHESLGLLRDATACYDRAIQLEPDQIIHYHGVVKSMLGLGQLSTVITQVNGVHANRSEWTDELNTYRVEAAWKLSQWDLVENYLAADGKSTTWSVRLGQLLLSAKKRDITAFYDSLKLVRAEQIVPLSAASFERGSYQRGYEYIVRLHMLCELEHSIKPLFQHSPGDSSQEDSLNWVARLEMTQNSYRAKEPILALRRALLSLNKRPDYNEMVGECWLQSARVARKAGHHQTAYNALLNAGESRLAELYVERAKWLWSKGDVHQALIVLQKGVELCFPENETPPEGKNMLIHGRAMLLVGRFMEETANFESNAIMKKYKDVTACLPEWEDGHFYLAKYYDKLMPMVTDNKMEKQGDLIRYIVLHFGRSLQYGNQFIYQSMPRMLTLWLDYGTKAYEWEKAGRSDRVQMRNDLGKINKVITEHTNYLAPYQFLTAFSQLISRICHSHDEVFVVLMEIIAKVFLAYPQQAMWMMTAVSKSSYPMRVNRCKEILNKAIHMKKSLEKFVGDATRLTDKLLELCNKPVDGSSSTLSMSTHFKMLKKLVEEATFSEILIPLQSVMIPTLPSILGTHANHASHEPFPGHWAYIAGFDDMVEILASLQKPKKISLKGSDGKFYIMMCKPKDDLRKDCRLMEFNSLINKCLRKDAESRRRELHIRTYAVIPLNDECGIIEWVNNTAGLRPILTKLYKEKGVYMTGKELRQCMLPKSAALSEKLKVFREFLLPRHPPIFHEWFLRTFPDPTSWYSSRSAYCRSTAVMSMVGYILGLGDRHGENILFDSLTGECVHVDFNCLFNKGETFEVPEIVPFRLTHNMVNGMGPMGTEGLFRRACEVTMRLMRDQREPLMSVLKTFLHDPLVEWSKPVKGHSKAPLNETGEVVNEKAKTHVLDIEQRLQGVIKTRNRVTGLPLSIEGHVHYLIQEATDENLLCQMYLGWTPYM
As to the kind of experiment: ATR Inhibition Assay (radioactive-phosphate incorporation). In kind it is biochemical. Conditions: Ki(app); 10 μM ATP, 800 μM target peptide, 5 nM full-length ATR, 25° C. As to the method: Compounds were screened for their ability to inhibit ATR kinase using a radioactive-phosphate incorporation assay. Assays were carried out in a mixture of 50 mM Tris/HCl (pH 7.5), 10 mM MgCl2 and 1 mM DTT. Final substrate concentrations were 10 μM [γ-33P]ATP (3 mCi 33P ATP/mmol ATP, Perkin Elmer) and 800 μM target peptide ([…] (SEQ. ID NO: 1)).
Assays were carried out at 25° C. in the presence of 5 nM full-length ATR. An assay stock buffer solution was prepared containing all of the reagents listed above, with the exception of ATP and the test compound of interest. 13.5 μL of the stock solution was placed in a 96 well plate followed by addition of 2 μL of DMSO stock containing serial dilutions of the test compound (typically starting from a final concentration of 15 μM with 3-fold serial dilutions) in duplicate (final DMSO concentration 7%). The plate was pre-incubated for 10 minutes at 25° C. and the reaction initiated by addition of 15 μL [γ-33P]ATP (final concentration 10 μM).
The reaction was stopped after 24 hours by the addition of 30 μL 0.1M phosphoric acid containing 2 mM ATP. A multiscreen phosphocellulose filter 96-well plate (Millipore, Cat no. MAPHN0B50) was pretreated with 100 μL 0.2M phosphoric acid prior to the addition of 45 μL of the stopped assay mixture. The plate was washed with […] 0.2M phosphoric acid. After drying, 100 μL Optiphase ‘SuperMix’ liquid scintillation cocktail (Perkin Elmer) was added to the well prior to scintillation counting (1450 Microbeta Liquid Scintillation Counter, Wallac).
After removing mean background values for all of the data points, Ki(app) data were calculated from non-linear regression analysis of the initial rate data using the Prism software package (GraphPad Prism version 3.0cx for Macintosh, GraphPad Software, San Diego Calif., USA).
Consider `CC(=O)NCC#Cc1cnc(N)c(-c2nc3ccc(C)cc3[nH]2)n1` [II-88, N-[3-[5-amino-6-(6-methyl-1H-benzimidazol-2-yl)pyrazin-2-yl]prop-2-ynyl]acetamide], for which the pKi is at least 6.30. As for `CCN(CC)C(=O)c1cnc(N)c(-c2nc3ccc(C)cc3[nH]2)n1` [II-46, 5-Amino-N,N-diethyl-6-(6-methyl-1H-benzimidazol-2-yl)pyrazine-2-carboxamide], the pKi was 5.10 to 6.00. As to `Nc1ncc(Oc2cccc(Cl)c2)nc1-c1nc2ccccc2[nH]1` [II-8, 3-(1H-Benzimidazol-2-yl)-5-(3-chlorophenoxy)pyrazin-2-amine], the pKi is 6.00 to 6.30. `C/C=C/c1cnc(N)c(-c2nc3ccc(C)cc3[nH]2)n1` [II-78, 3-(6-Methyl-1H-benzimidazol-2-yl)-5-[(E)-prop-1-enyl]pyrazin-2-amine]: the pKi was 6.00 to 6.30.

For the compound `Nc1ncc(Oc2ccccc2)nc1-c1nc2ccccc2[nH]1` [II-7, 3-(1H-Benzimidazol-2-yl)-5-phenoxy-pyrazin-2-amine], the negative logarithm of the Ki (pKi) is 6.00 to 6.30.

As for `Cc1ccc2nc(-c3nc(C(=O)NCC(N)=O)cnc3N)[nH]c2c1` [II-50, 5-Amino-N-(2-amino-2-oxo-ethyl)-6-(6-methyl-1H-benzimidazol-2-yl)pyrazine-2-carboxamide], the negative-log Ki (pKi) was 5.10 to 6.00. With `Cc1ccc2nc(-c3nc(C(=O)NCC4CC4)cnc3N)[nH]c2c1` [II-56, 5-Amino-N-(cyclopropylmethyl)-6-(6-methyl-1H-benzimidazol-2-yl)pyrazine-2-carboxamide], the pKi was at least 6.30. Still for that read-out and setting: then `Cc1ccc2nc(-c3nc(OC4CCCN(C)C4)cnc3N)[nH]c2c1` (stereo not drawn) [II-33, 3-(6-Methyl-1H-benzimidazol-2-yl)-5-[(1-methyl-3-piperidyl)oxy]pyrazin-2-amine], with 5.10 to 6.00; and `COc1ccccc1NC(=O)c1nc(Nc2ccccc2)cnc1N` [II-3, 3-Amino-6-anilino-N-(2-methoxyphenyl)pyrazine-2-carboxamide], with at least 6.30; and `Cc1ccc2nc(-c3nc(C#CCNS(C)(=O)=O)cnc3N)[nH]c2c1` [II-87, N-[3-[5-Amino-6-(6-methyl-1H-benzimidazol-2-yl)pyrazin-2-yl]prop-2-ynyl]methanesulfonamide], with 6.00 to 6.30.

`Cc1ccc2nc(-c3nc(/C=C/Cc4ccccc4)cnc3N)[nH]c2c1`: the negative logarithm of the Ki (pKi) was 5.10 to 6.00.

`Nc1ncc(Nc2cccc(F)c2)nc1C(=O)Nc1ccccc1` [II-4, 3-Amino-6-(3-fluoroanilino)-N-phenyl-pyrazine-2-carboxamide]: the pKi was at least 6.30. As for `Nc1ncc(C#CCO)nc1-c1nnc(-c2ccccc2)o1` [II-90, 3-[5-amino-6-(5-phenyl-1,3,4-oxadiazol-2-yl)pyrazin-2-yl]prop-2-yn-1-ol], the pKi is 5.10 to 6.00. The same measure, in the same setting: then `Cc1ccc2nc(-c3nc(Oc4cccnc4)cnc3N)[nH]c2c1` [II-29, 3-(6-Methyl-1H-benzimidazol-2-yl)-5-(3-pyridyloxy)pyrazin-2-amine], with 6.00 to 6.30; and `Cc1ccc2nc(-c3nc(C(=O)NCCC#N)cnc3N)[nH]c2c1` [II-77, 5-Amino-N-(2-cyanoethyl)-6-(6-methyl-1H-benzimidazol-2-yl)pyrazine-2-carboxamide], with at least 6.30; and `N#Cc1cccc(Oc2cnc(N)c(-c3nc4ccccc4[nH]3)n2)c1` [II-10, 3-[5-Amino-6-(1H-benzimidazol-2-yl)pyrazin-2-yl]oxybenzonitrile], with at least 6.30.

With `CC(=O)Nc1ccc(Oc2cnc(N)c(-c3nc4ccc(C)cc4[nH]3)n2)cc1` [II-18, N-[4-[5-Amino-6-(6-methyl-1H-benzimidazol-2-yl)pyrazin-2-yl]oxyphenyl]acetamide], the pKi was 5.10 to 6.00. For the compound `Cc1ccc2nc(-c3nc(C(=O)NCC(=O)N(C)C)cnc3N)[nH]c2c1` [II-61, 5-Amino-N-[2-(dimethylamino)-2-oxo-ethyl]-6-(6-methyl-1H-benzimidazol-2-yl)pyrazine-2-carboxamide], the pKi is 5.10 to 6.00.

`Cc1ccc2nc(-c3nc(C(=O)Nc4ccc(N5CCN(C)CC5)nc4)cnc3N)[nH]c2c1` [II-45, 5-Amino-6-(6-methyl-1H-benzimidazol-2-yl)-N-[6-(4-methylpiperazin-1-yl)-3-pyridyl]pyrazine-2-carboxamide]: the pKi is 5.10 to 6.00. On to `C=CCNC(=O)c1cnc(N)c(-c2nc3ccc(C)cc3[nH]2)n1` [II-66, N-Allyl-5-amino-6-(6-methyl-1H-benzimidazol-2-yl)pyrazine-2-carboxamide], for which the pKi is 5.10 to 6.00. As to `Cc1ccc2nc(-c3nc(C(=O)NCc4ccccc4)cnc3N)[nH]c2c1` [II-43, 5-Amino-N-benzyl-6-(6-methyl-1H-benzimidazol-2-yl)pyrazine-2-carboxamide], the pKi is at least 6.30. `CC(C)(O)C#Cc1cnc(N)c(C(=O)Nc2ccccc2)n1` [II-81, 3-Amino-6-(3-hydroxy-3-methyl-but-1-ynyl)-N-phenyl-pyrazine-2-carboxamide]: the pKi was 6.00 to 6.30.

Take `COC/C=C/c1cnc(N)c(-c2nc3ccc(C)cc3[nH]2)n1` [II-80, 5-[(E)-3-Methoxyprop-1-enyl]-3-(6-methyl-1H-benzimidazol-2-yl)pyrazin-2-amine]: the negative-log Ki (pKi) is 5.10 to 6.00. As to `Cc1ccc2nc(-c3nc(C(=O)N(C)c4ccccc4)cnc3N)[nH]c2c1` [II-44, 5-Amino-N-methyl-6-(6-methyl-1H-benzimidazol-2-yl)-N-phenyl-pyrazine-2-carboxamide], the pKi was 6.00 to 6.30.

As to `CC(C)Oc1cnc(N)c(-c2nc3ccccc3[nH]2)n1` [II-13, 3-(1H-Benzimidazol-2-yl)-5-isopropoxy-pyrazin-2-amine], the pKi is 5.10 to 6.00.

As to `COc1cccc(Oc2cnc(N)c(-c3nc4ccccc4[nH]3)n2)c1` [II-15, 3-(1H-Benzimidazol-2-yl)-5-(3-methoxyphenoxy)pyrazin-2-amine], the pKi is 6.00 to 6.30.

In the case of `Cc1ccc2nc(-c3nc(C(=O)NCc4ccc(F)cc4)cnc3N)[nH]c2c1` [II-64, 5-Amino-N-[(4-fluorophenyl)methyl]-6-(6-methyl-1H-benzimidazol-2-yl)pyrazine-2-carboxamide], the pKi was at least 6.30. For `Cc1ccc2nc(-c3nc(C(=O)Nc4cccnc4)cnc3N)[nH]c2c1` [II-42, 5-Amino-6-(6-methyl-1H-benzimidazol-2-yl)-N-(3-pyridyl)pyrazine-2-carboxamide], the pKi was 6.00 to 6.30. Same read-out and setting: in the case of `Nc1ncc(OCCO)nc1-c1nc2ccccc2[nH]1` [II-14, 2-[5-Amino-6-(1H-benzimidazol-2-yl)pyrazin-2-yl]oxyethanol] it was 5.10 to 6.00.

The experiment is the same for the next values; noted with them: at 15 uM compound; read-out: percent inhibition against ATR.
On to `Cc1ccc2nc(-c3nc(C(=O)NCC4CCCCC4)cnc3N)[nH]c2c1` [II-63, 5-Amino-N-(cyclohexylmethyl)-6-(6-methyl-1H-benzimidazol-2-yl)pyrazine-2-carboxamide], for which the inhibition at 15 µM was 25 to 45%. Regarding `COC(=O)c1ccc(Oc2cnc(N)c(-c3nc4ccc(C)cc4[nH]3)n2)cc1` [II-25, Methyl 4-[5-amino-6-(6-methyl-1H-benzimidazol-2-yl)pyrazin-2-yl]oxybenzoate], the inhibition at 15 µM is 10%.

Still in this experiment, the particulars now being: at 30 uM compound; read-out: percent inhibition against ATR.
Consider `Cc1ccc2nc(-c3nc(Oc4ccccc4Cl)cnc3N)[nH]c2c1` [II-21, 5-(2-Chlorophenoxy)-3-(6-methyl-1H-benzimidazol-2-yl)pyrazin-2-amine], for which the inhibition at 30 µM was 40 to 50%. Same read-out and setting: in the case of `Nc1ncc(Sc2cccc(F)c2)nc1-c1nc2ccccc2[nH]1` [II-40, 3-(1H-Benzimidazol-2-yl)-5-(3-fluorophenyl)sulfanyl-pyrazin-2-amine] it was 40 to 50%.
